Measurements published in ChEMBL document CHEMBL1128559, “Inhibition of the oncogene product p185erbB-2 in vitro and in vivo by geldanamycin and dihydrogeldanamycin derivatives” (J Med Chem, 1995).

Key:
SK-BR-3 [1] = assay: Inhibition of oncogene product p185 erbB-2 from human breast cancer cells(SK-BR-3 cells).
Mus musculus [2] = assay: In vivo inhibition of phospho-p185erbB-2 expression in FRE/erbB-2 tumors in nu/nu mice at 100 mg/kg dose.
Mus musculus [3] = assay: In vivo inhibition of phospho-p185erbB-2 expression in FRE/erbB-2 tumors in nu/nu mice at 200 mg/kg dose.
SK-BR-3 [4] = assay: Inhibition of oncogene product p185 erbB-2 from human breast cancer cells(SK-BR-3 cells) at 50 mg/kg dose.; type: functional
Mus musculus [5] = assay: In vivo inhibition of phospho-p185erbB-2 expression in human SK-BR-3 tumors at 100 mg/kg dose in mice; type: functional
Mus musculus [6] = assay: In vivo inhibition of phospho-p185erbB-2 expression in FRE/erbB-2 tumors at 50 mg/kg dose in mice
Mus musculus [7] = assay: In vivo inhibition of phospho-p185erbB-2 expression in FRE/erbB-2 tumors at 200 mg/kg dose in mice
Mus musculus [8] = assay: In vivo inhibition of phospho-p185erbB-2 expression in FRE/erbB-2 tumors at 400 mg/kg dose in mice
Mus musculus [9] = assay: In vivo inhibition of phospho-p185erbB-2 expression in human SK-BR-3 tumors at 50 mg/kg ip dose in mice; type: functional; details: SK-BR-3, ip, route intraperitoneal
Mus musculus [10] = assay: In vivo inhibition of phospho-p185erbB-2 expression in human SK-BR-3 tumors at 100 mg/kg ip dose in mice; type: functional; details: SK-BR-3, ip, route intraperitoneal
SK-BR-3 [11] = assay: In vitro inhibition of phospho-p185erbB-2 expression in human breast cancer cells(SK-BR-3 cells) at 50 mg/kg dose; type: functional; design: dose 50 mg/kg
Mus musculus [12] = assay: In vivo inhibition of phospho-p185erbB-2 expression in FRE/erbB-2 tumors at 400 mg/kg ip dose in mice; details: FRE/erbB-2, ip
SK-BR-3 [13] = assay: […] inhibition of phospho-p185erbB-2 expression in human breast cancer cells(SK-BR-3 cells) at 200 mg/kg dose.; type: functional
Mus musculus [14] = organism: Mus musculus; details: 400 mg/kg
Description: In vivo inhibition of phospho-p185erbB-2 expression in human SK-BR-3 tumors at 400 mg/kg dose in mice (lethal)

Mus musculus [15] = assay: In vivo inhibition of phospho-p185erbB-2 expression in FRE/erbB-2 tumors at 200 mg/kg dose ip in mice; details: FRE/erbB-2, ip

| Compound | IC50 (SK-BR-3 [1]) [nM] | inhibition in vivo at 100 mg/kg (Mus musculus [2]) [%] | inhibition in vivo at 200 mg/kg (Mus musculus [3]) [%] | also measured |
| --- | --- | --- | --- | --- |
| COCCNC1=C2C[C@@H](C)C[C@H](OC)[C@H](O)[C@@H](C)/C=C(\C)[C@H](OC(N)=O)[C@@H](OC)CC/C=C(\C)C(=O)NC(=CC1=O)C2=O | 33 | 42 | 69 |  |
| CO[C@H]1/C=C\C=C(/C)C(=O)NC2=CC(=O)C(N)=C(C[C@@H](C)C[C@H](OC)[C@H](O)[C@@H](C)/C=C(\C)[C@@H]1OC(N)=O)C2=O | 37 |  | 47 |  |
| CCN(CC)C1=NC2=C3C[C@@H](C)C[C@H](OC)[C@H](O)[C@@H](C)/C=C(\C)[C@H](OC(N)=O)[C@@H](OC)/C=C\C=C(/C)C(=O)NC(=CC2=N1)C3=O |  |  |  | IC50 (SK-BR-3 [4]): 210 nM |
| CO[C@H]1C[C@H](C)CC2=C(N)C(=O)C=C(NC(=O)/C(C)=C/CC[C@H](OC)[C@@H](OC(N)=O)/C(C)=C/[C@H](C)[C@H]1O)C2=O | 40 | 45 | 44 |  |
| CO[C@H]1/C=C\C=C(/C)C(=O)NC2=CC3=NC(N(C)Cc4ccccc4)=NC3=C(C[C@@H](C)C[C@H](OC)[C@H](O)[C@@H](C)/C=C(\C)[C@@H]1OC(N)=O)C2=O |  |  |  | IC50 (SK-BR-3 [4]): 300 nM |
| CO[C@H]1C[C@H](C)CC2=C(NCCC#N)C(=O)C=C(NC(=O)/C(C)=C/CC[C@H](OC)[C@@H](OC(N)=O)/C(C)=C/[C@H](C)[C@H]1O)C2=O |  |  |  | IC50 (SK-BR-3 [4]): 30 nM |
| CO[C@H]1/C=C\C=C(/C)C(=O)NC2=CC(=O)C(NC(C)C)=C(C[C@@H](C)C[C@H](OC)[C@H](O)[C@@H](C)/C=C(\C)[C@@H]1OC(N)=O)C2=O | 60 |  | 87 |  |
| C=CCNC1=C2C[C@@H](C)C[C@H](OC)[C@H](O)[C@@H](C)/C=C(\C)[C@H](OC(N)=O)[C@@H](OC)/C=C\C=C(/C)C(=O)NC(=CC1=O)C2=O [TANESPIMYCIN] | 31 | 55 | 68 | inhibition in vivo at 100 mg/kg (Mus musculus [5]): 60%; inhibition in vivo at 50 mg/kg (Mus musculus [6]): 27%; inhibition in vivo at 200 mg/kg (Mus musculus [7]): 80%; inhibition in vivo at 400 mg/kg (Mus musculus [8]): 72% |
| CO[C@H]1C[C@H](C)CC2=C(NCCF)C(=O)C=C(NC(=O)/C(C)=C/CC[C@H](OC)[C@@H](OC(N)=O)/C(C)=C/[C@H](C)[C@H]1O)C2=O | 27 |  | 53 |  |
| CO[C@H]1/C=C\C=C(/C)C(=O)NC2=CC(=O)C(NC[C@H](C)O)=C(C[C@@H](C)C[C@H](OC)[C@H](O)[C@@H](C)/C=C(\C)[C@@H]1OC(N)=O)C2=O | 99 | 65 | 70 |  |
| CO[C@H]1C[C@H](C)CC2=C(N3CC(O)C3)C(=O)C=C(NC(=O)/C(C)=C/CC[C@H](OC)[C@@H](OC(N)=O)/C(C)=C/[C@H](C)[C@H]1O)C2=O | 50 | 29 | 44 |  |
| CO[C@H]1/C=C\C=C(/C)C(=O)NC2=CC(=O)C=C(C[C@@H](C)C[C@H](OC)[C@H](O)[C@@H](C)/C=C(\C)[C@@H]1OC(N)=O)C2=O |  |  |  | inhibition in vivo at 50 mg/kg (Mus musculus [9]): 29%; inhibition in vivo at 100 mg/kg (Mus musculus [10]): 34%; IC50 (SK-BR-3 [11]): 300 nM; inhibition in vivo at 400 mg/kg (Mus musculus [12]): 57% |
| CO[C@H]1/C=C\C=C(/C)C(=O)NC2=CC(=O)C(NCCC#N)=C(C[C@@H](C)C[C@H](OC)[C@H](O)[C@@H](C)/C=C(\C)[C@@H]1OC(N)=O)C2=O |  |  |  | IC50 (SK-BR-3 [4]): 17 nM; inhibition in vivo at 200 mg/kg (SK-BR-3 [13]): 61% |
| CO[C@H]1/C=C\C=C(/C)C(=O)NC2=CC3=NC(N(C)C)=NC3=C(C[C@@H](C)C[C@H](OC)[C@H](O)[C@@H](C)/C=C(\C)[C@@H]1OC(N)=O)C2=O |  |  |  | IC50 (SK-BR-3 [4]): 50 nM |
| CO[C@H]1C[C@H](C)CC2=C(NCCO)C(=O)C=C(NC(=O)/C(C)=C/CC[C@H](OC)[C@@H](OC(N)=O)/C(C)=C/[C@H](C)[C@H]1O)C2=O | 34 |  | 55 |  |
| CO[C@H]1C[C@H](C)CC2=C3N=C(N(C)C)N=C3C=C(NC(=O)/C(C)=C/CC[C@H](OC)[C@@H](OC(N)=O)/C(C)=C/[C@H](C)[C@H]1O)C2=O |  |  |  | IC50 (SK-BR-3 [4]): 50 nM |
| CO[C@H]1C[C@H](C)CC2=C(NC3CC3)C(=O)C=C(NC(=O)/C(C)=C/CC[C@H](OC)[C@@H](OC(N)=O)/C(C)=C/[C@H](C)[C@H]1O)C2=O | 46 | 31 |  |  |
| CO[C@H]1/C=C\C=C(/C)C(=O)NC2=CC(=O)C(NCCF)=C(C[C@@H](C)C[C@H](OC)[C@H](O)[C@@H](C)/C=C(\C)[C@@H]1OC(N)=O)C2=O | 12 | 50 | 68 |  |
| CO[C@H]1/C=C\C=C(/C)C(=O)NC2=CC(=O)C(N3CCC3)=C(C[C@@H](C)C[C@H](OC)[C@H](O)[C@@H](C)/C=C(\C)[C@@H]1OC(N)=O)C2=O | 23 | 61 | 68 |  |
| CNC1=C2C[C@@H](C)C[C@H](OC)[C@H](O)[C@@H](C)/C=C(\C)[C@H](OC(N)=O)[C@@H](OC)CC/C=C(\C)C(=O)NC(=CC1=O)C2=O | 12 |  | 37 |  |
| CO[C@H]1C[C@H](C)CC2=C(N3CCC3)C(=O)C=C(NC(=O)/C(C)=C/CC[C@H](OC)[C@@H](OC(N)=O)/C(C)=C/[C@H](C)[C@H]1O)C2=O | 14 | 38 | 27 |  |
| CO[C@H]1C[C@H](C)CC2=C(NCC(C)O)C(=O)C=C(NC(=O)/C(C)=C/CC[C@H](OC)[C@@H](OC(N)=O)/C(C)=C/[C@H](C)[C@H]1O)C2=O (stereo not given in full) | 83 |  | 32 |  |
| COC1=C2C[C@@H](C)C[C@H](OC)[C@H](O)[C@@H](C)/C=C(\C)[C@H](OC(N)=O)[C@@H](OC)/C=C\C=C(/C)C(=O)NC(=CC1=O)C2=O [GELDANAMYCIN] | 70 |  |  | inhibition in vivo at 50 mg/kg (Mus musculus [9]): 30%; inhibition in vivo at 100 mg/kg (Mus musculus [10]): 6%; inhibition (Mus musculus [14]): Lethal; inhibition in vivo at 200 mg/kg (Mus musculus [15]): 25% |
| CO[C@H]1/C=C\C=C(/C)C(=O)NC2=CC(=O)C(N[C@@H](C)CO)=C(C[C@@H](C)C[C@H](OC)[C@H](O)[C@@H](C)/C=C(\C)[C@@H]1OC(N)=O)C2=O | 180 |  |  |  |
| C=CCNC1=C2C[C@@H](C)C[C@H](OC)[C@H](O)[C@@H](C)/C=C(\C)[C@H](OC(N)=O)[C@@H](OC)CC/C=C(\C)C(=O)NC(=CC1=O)C2=O | 51 |  |  |  |
| CO[C@H]1/C=C\C=C(/C)C(=O)NC2=CC(=O)C(N3CC(CO)C3)=C(C[C@@H](C)C[C@H](OC)[C@H](O)[C@@H](C)/C=C(\C)[C@@H]1OC(N)=O)C2=O | 1300 |  |  |  |
| CO[C@H]1/C=C\C=C(/C)C(=O)NC2=CC(=O)C(NC3CCCC3)=C(C[C@@H](C)C[C@H](OC)[C@H](O)[C@@H](C)/C=C(\C)[C@@H]1OC(N)=O)C2=O | > 3260 |  |  |  |
| C#CCNC1=C2C[C@@H](C)C[C@H](OC)[C@H](O)[C@@H](C)/C=C(\C)[C@H](OC(N)=O)[C@@H](OC)/C=C\C=C(/C)C(=O)NC(=CC1=O)C2=O | 26 |  |  |  |
| CO[C@H]1/C=C\C=C(/C)C(=O)NC2=CC(=O)C(NCCS)=C(C[C@@H](C)C[C@H](OC)[C@H](O)[C@@H](C)/C=C(\C)[C@@H]1OC(N)=O)C2=O | 170 |  |  |  |
| CO[C@H]1/C=C\C=C(/C)C(=O)NC2=CC(=O)C(NCCCn3ccnc3)=C(C[C@@H](C)C[C@H](OC)[C@H](O)[C@@H](C)/C=C(\C)[C@@H]1OC(N)=O)C2=O | 920 |  |  |  |
